Assay results as given in EP0513997A1, “Antithrombotic compositions” (CHINOIN Gyogyszer és Vegyészeti Termékek Gyára RT., priority 1991, dated 1992).

Legend:
[1] = test system: rabbit platelets; experiment: In vitro rabbit platelet aggregation induced by ADP, collagen, AA or A 23187 Ca ionophor; assay type: cell-based
Text: We compared on rabbit platelets the in vitro antiaggregatory effect , of acetylsalicylic acid (ASA), salicylic acid (SA). Pentoxifylline (Pentox or Trental), Nospa, Papaverine and Depogen. The aggregation of the rabbit platelets was induced by adenosine diphosphate (ADP), arachidonic acid (AA), Collagen and A 23187 Ca ionophor.

[2] = test system: thrombus formation; experiment: In vivo thrombus formation on cotton thread in arterio-venous plastic vessel shunt; set-up: species or system anaesthetised rabbits
Protocol: We investigated furthermore the in vivo antithrombotic effect of Depogen on anaesthetised rabbits. Depogen was administered intravenously in a dose range of 2.5-7.5 mg/kg. The vena yugularis was connected with the arteria carotis with the help of a plastic vessel. In the plastic vessel a cotton thread was placed, which served as inductor. The amount of thrombus sticked to the surface of the cotton was weighed in the case of the treated and untreated animals (after Herrmann R.G. et al., Proc. Soc. Exp. Biol. Med. 139, 548-552, 1972.)

[3] = test system: platelet aggregation; experiment: Ex vivo platelet aggregation after administration; assay type: in vivo, rabbits
[4] = test system: rabbit platelets; experiment: Inhibition of PAF induced serotonine release in platelets; assay type: cell-based; conditions: release induced by 5 x 10⁻⁸ M of PAF
[5] = test system: acified ethanol- and indomethacine- induced ulceration; experiment: Acidified ethanol- and indomethacin-induced ulceration; assay type: in vivo; conditions: rat, in the antiaggregatory dose
Text: The active ingredients according to the present invention, first of all Depogen, have further advantages compared with the widespreadly used ASA. ASA has significant gastrointestinal adverse effects, such as peptic ulcer, gastric haemorrhage. Depogen has no such adverse effect, and what is more, it has a weak ulcus-preventing activity. According to the measurements, in the antiaggregatory dose it exerts a 25-50 % inhibition on the acified ethanol- and indomethacine- induced ulceration in rat.

[6] = test system: rabbit platelets; experiment: Inhibition of PAF induced platelet aggregation; assay type: cell-based; conditions: aggregation induced by 1 µM of PAF
[7] = test system: thromboxane and prostacyclin level of the blood plasma; experiment: Thromboxane and prostacyclin level of the blood plasma after 4 days per os administration; assay type: in vivo; conditions: rat, determined on the 5th day
Protocol: We investigated the effect of Depogen on the thromboxane and prostacyclin level of the blood plasma, in rat, after 4 days of per os administration in doses of 5 mg/kg and 10 mg/kg. On the 5th day we determined the thromboxane and prostacyclin level of the blood plasma (Table 7).

[8] = test system: prostacyclin release from the aorta; experiment: In vitro prostacyclin (PGI2) release from the aorta; assay type: cell-based; conditions: in vitro (Figure 6)
Text: From the point of view of PGI2 release Depogen represents a considerable […] compared to Pentoxifylline, as the ratio of the doses inhibiting platelet aggregation and increasing PGI2 release is lower for Depogen than for Pentoxifylline (Table 6) and thus the effective dose ranges of the two actions are closer to each other in the case of Depogen.

[9] = Oryctolagus cuniculus, Platelet, aggregation induced by A-23187 Ca ionophor, in vitro, read-out: IC50 rabbit platelet aggregation, A-23187
[10] = Oryctolagus cuniculus, Platelet, aggregation induced by ADP, in vitro, read-out: IC50 rabbit platelet aggregation, ADP
[11] = Oryctolagus cuniculus, Platelet, aggregation induced by Collagen, in vitro, read-out: IC50 rabbit platelet aggregation, Collagen
[12] = Oryctolagus cuniculus, Platelet, aggregation induced by arachidonic acid (AA), in vitro, read-out: IC50 rabbit platelet aggregation, AA
[13] = Table 5, unit inferred, aggregation induced by A 23187, read-out: Antiaggregatory Effect A 23187
[14] = Table 5, unit inferred, aggregation induced by AA, read-out: Antiaggregatory Effect AA
[15] = Table 5, unit inferred, aggregation induced by ADP, read-out: Antiaggregatory Effect ADP
[16] = Table 5, unit inferred, aggregation induced by Collagen, read-out: Antiaggregatory Effect Collagen
[17] = aggregation induced by A-23187 Ca ionophor, in vitro, read-out: IC50 rabbit platelet aggregation, A-23187
[18] = aggregation induced by ADP, in vitro, read-out: IC50 rabbit platelet aggregation, ADP
[19] = aggregation induced by Collagen, in vitro, read-out: IC50 rabbit platelet aggregation, Collagen
[20] = aggregation induced by arachidonic acid (AA), in vitro, read-out: IC50 rabbit platelet aggregation, AA
[21] = Oryctolagus cuniculus, Platelet
[22] = p.o. 10 mg/kg/day during 4 days
[23] = Oryctolagus cuniculus, Platelet, read-out: IC50 rabbit platelet aggregation, A-23187
[24] = Oryctolagus cuniculus, Platelet, read-out: IC50 rabbit platelet aggregation, AA
[25] = Oryctolagus cuniculus, Platelet, read-out: IC50 rabbit platelet aggregation, ADP
[26] = Oryctolagus cuniculus, Platelet, read-out: IC50 rabbit platelet aggregation, Collagen

IC50 [1, 13] [µM]	IC50 [1, 14] [µM]	IC50 [1, 15] [µM]	IC50 [1, 16] [µM]	IC50 [1, 17] [µM]	IC50 [1, 18] [µM]	IC50 [1, 19] [µM]	IC50 [1, 20] [µM]	Compound	IC50 [1, 9] [µM]	IC50 [1, 10] [µM]	IC50 [1, 11] [µM]	IC50 [1, 12] [µM]	IC50 [4, 21] [µM]	IC50 [6, 21] [µM]	IC50 [1, 23] [µM]	IC50 [1, 24] [µM]	IC50 [1, 25] [µM]	IC50 [1, 26] [µM]	further results
228	240	247	140	230	247	140	240	CCOc1ccc(CC2=NCCc3cc(OCC)c(OCC)cc32)cc1OCC [Depogen, (3′,4′-diethoxy-benzyl)-6,7-diethoxy-3,4-dihydroisoquinolinium theophyllin-7-acetate]					118	684					Inhibitory Effect % in vivo thrombus formation ([2]; dose 2.5 mg/kg intravenously): 25± 3%; Inhibitory Effect % in vivo thrombus formation ([2]; dose 5.0 mg/kg intravenously): 45± 5%; Inhibitory Effect % in vivo thrombus formation ([2]; dose 7.5 mg/kg intravenously): 60± 7%; inhibition at 2.5 mg/kg ([3]; Oryctolagus cuniculus, Platelet, iv, dose 2.5 mg/kg intravenously, read-out: Inhibitory Effect % ex vivo aggregation): 30 ± 4%; inhibition at 5 mg/kg ([3]; Oryctolagus cuniculus, Platelet, iv, dose 5.0 mg/kg intravenously, read-out: Inhibitory Effect % ex vivo aggregation): 45 ± 5%; inhibition at 7.5 mg/kg ([3]; Oryctolagus cuniculus, Platelet, iv, dose 7.5 mg/kg intravenously, read-out: Inhibitory Effect % ex vivo aggregation): 55 ± 6%; antiaggregatory effect in ex vivo experiments ([3]; after oral and intravenous administration (Figures 3 and 4)): significant antiaggregatory effect; antiaggregatory effect, times stronger than that of ASA ([1]; compared with ASA, in vitro): 10-20 times; inhibition on the acified ethanol- and indomethacine- induced ulceration [5]: 25-50%; PGI2 ([7]; p.o. 5 mg/kg/day during 4 days): 206.4± 11.2 pg/ml of plasma; PGI2/TxA2 ([7]; p.o. 5 mg/kg/day during 4 days): 4.2; TxA2 ([7]; p.o. 5 mg/kg/day during 4 days): 48.7± 3.9 pg/ml of plasma; PGI2 [7, 22]: 363.8± 19.3 pg/ml of plasma; PGI2/TxA2 [7, 22]: 11; TxA2 [7, 22]: 33.7± 3.6 pg/ml of plasma; prostacyclin release from the aorta [8]: significantly enhances
840	810	740	580	840	740	580	810	CCOc1ccc(CC2=NCCc3cc(OCC)c(OCC)cc32)cc1OCC [Nospa, 1-(3-,4′-diethoxybenzyl)-6,7-diethoxy-3,4-dihydro-iso-quinoline]											IC50 [4]: 96 µM; IC50 [6]: 756 µM

Second part, the molecule before the results:

Compound	IC50 [1, 13] [µM]	IC50 [1, 14] [µM]	IC50 [1, 15] [µM]	IC50 [1, 16] [µM]	IC50 [1, 17] [µM]	IC50 [1, 18] [µM]	IC50 [1, 19] [µM]	IC50 [1, 20] [µM]	IC50 [1, 9] [µM]	IC50 [1, 10] [µM]	IC50 [1, 11] [µM]	IC50 [1, 12] [µM]	IC50 [4, 21] [µM]	IC50 [6, 21] [µM]	IC50 [1, 23] [µM]	IC50 [1, 24] [µM]	IC50 [1, 25] [µM]	IC50 [1, 26] [µM]	further results
CC(=O)Oc1ccccc1C(=O)O [ASA, acetylsalicylic acid, reference compound]									2440	4050	2610	780							
COc1ccc(Cc2nccc3cc(OC)c(OC)cc23)cc1OC [Papaverine, 1-(3′,4′-dimethoxy-benzyl)-6,7-dimethoxy-isoquinoline]													48.2	656	1060	130	190	270	IC50 ([1]; Oryctolagus cuniculus, Platelet, read-out: Antiaggregatory Effect A 23187): 1060 µM; IC50 ([1]; Oryctolagus cuniculus, Platelet, read-out: Antiaggregatory Effect AA): 130 µM; IC50 ([1]; Oryctolagus cuniculus, Platelet, read-out: Antiaggregatory Effect ADP): 190 µM; IC50 ([1]; Oryctolagus cuniculus, Platelet, read-out: Antiaggregatory Effect Collagen): 270 µM
CC(=O)CCCCn1c(=O)c2c(ncn2C)n(C)c1=O [Pentoxifylline, reference compound]									2770	2660	2050	1870	800	1000					IC50 ([1]; Oryctolagus cuniculus, Platelet, Table 5, unit inferred, aggregation induced by AA, read-out: Antiaggregatory Effect AA): 1870 µM; IC50 ([1]; Oryctolagus cuniculus, Platelet, Table 5, unit inferred, aggregation induced by ADP, read-out: Antiaggregatory Effect ADP): 2660 µM; IC50 ([1]; Oryctolagus cuniculus, Platelet, Table 5, unit inferred, aggregation induced by Collagen, read-out: Antiaggregatory Effect Collagen): 2050 µM
O=C(O)c1ccccc1O [Salicylic acid, salicylic acid, reference compound]															2610	1010	1380	1300	
